Experimental data reported in patent publication US6121277A, “Camptothecin-skeleton compounds isolated from Mappia foetida and the use thereof as syntones for novel medicaments as well as therapeutical agents” (Indena S.p.A., priority 1996, dated 2000).
Like-named read-outs stand apart in the source and are kept apart here.

How the values were obtained:
HCT116/VM46 = assay: Cytotoxic activity against the same line resistant to the most common chemotherapeutics (HCT116/VM46); type: cell-based; details: Homo sapiens
Excerpt: (§1) Compounds 1 have cytotoxic activity against tumor cell lines. For example, Table 1 reports the cytotoxic activity against a colon carcinoma line (HCT116) and against the same line resistant to the most common chemotherapeutics (HCT116/VM46).

HCT116 = assay: Cytotoxic activity against colon carcinoma line HCT116; type: cell-based; details: Homo sapiens
Excerpt: as §1

Row | SMILES | IC50 (HCT116/VM46; HCT-116/VM46, read-out: IC50 Line HCT116/VM46) [nM] | IC50 (HCT116; HCT-116, read-out: IC50 Line HCT116) [nM] | IC50 (HCT116/VM46; HCT-116/VM46, HCT116/VM46, resistant to the most common chemotherapeutics, read-out: IC50 Line HCT116/VM46) [nM] | IC50 (HCT116; HCT-116, colon carcinoma line HCT116, read-out: IC50 Line HCT116) [nM]
1 | CC[C@@]1(O)C(=O)OCc2c1cc1n(c2=O)Cc2cc3ccccc3nc2-1 [Camptothecin, camptothecin] | 96.7 | 10.5 |  | 
2 | CCC(O)(C(=O)O)c1cc2n(c(=O)c1COC(C)=O)Cc1cc3ccccc3nc1-2 (stereo not shown) [17-Acetyl-camptothecinic acid, 17-acetyl-camptothecinic acid] |  |  | 25.3 | 8.2
